Results as given in PubChem BioAssay AID1963986 (Molecular Pharmacology Branch, DTP, NCI, 2024).

Test system: 171881-019-R-J1-PDC tumor spheroid viability
Test: Anticancer human tumor 171881-019-R-J1-PDC patient-derived invasive breast carcinoma cell line growth inhibition [PI3K]
Conditions: spheroids with HUVEC and MSC; for viability, T/C: stronger effect = lower value
Excerpt: Combinatorial screen of targeted agents with the PI3K inhibitors inavolisib, alpelisib, duvelisib, and copanlisib in multi-cell type tumor spheroids
A high-throughput screen of multi-cell type tumor spheroids was designed to identify active combinations of targeted small molecules and PI3K pathway inhibitors. Complex spheroids include a stromal component modeled by human endothelial cells (HUVEC) and fibroblasts modeled by human mesenchymal stem cells (MSCs). The concentration ranges selected for each drug and investigational agent were based upon clinically achievable concentrations if the clinical Cmax of the agent was known.
Compounds. The drugs and investigational agents: inavolisib (NSC800729), alpelisib (NSC765974), duvelisib (NSC772469), copanlisib (NSC816437), ipatasertib (NSC767898), afuresertib (NSC778305), talazoparib (NSC767125), sapanisertib (NSC764658), selumetinib (NSC741078), tovorafenib (DAY101, NSC766906), vemurafenib (NSC761431), ravoxertinib (NSC781343), sotorasib (NSC818433), MRTX1133 (NSC 836407), abemaciclib (NSC 768073), palbociclib (NSC758247), venetoclax (NSC 766270), SY5609 (NSC837396), enzalutamide (NSC755605), and darolutamide (NSC825331), were obtained from the National Cancer Institute (NCI) Developmental Therapeutics Program Chemical Repository. The FDA-approved anticancer drug set is available from the NCI Developmental Therapeutics Program. […] The stock solutions were prepared in dimethyl sulfoxide (DMSO, Sigma-Aldrich, St. Louis, MO, cat. D2650) at 800-fold the tested concentration and stored at -70 degrees C prior to their use. All drugs and investigational agents were tested over a range starting from a high concentration at or near the clinical Cmax and decreasing in half-log increments. If the clinical Cmax for an agent had not been determined, the highest concentration tested was 10 microM.
Cell Culture. All cells were maintained in an incubator at 37 degrees C and 5% CO2 with 95% humidity. The PDC lines were cultured according to standard operating procedures established by the NCI PDMR (https://pdmr.cancer.gov/sops/default.htm). All PDCs were thawed and cultured in Matrigel-coated flasks prepared with a working solution of 1X Ham's F-12 nutrient mix, without supplementation (Invitrogen, Waltham, MA, cat. 11765054), 100 U/mL penicillin-streptomycin (Invitrogen, cat. 15140122), and 2.5% Matrigel (Corning Inc., Corning, NY, cat. 354248) for the first three passages. The 354836-022-R-J1-PDC, 475296-252-R-J1-PDC, and 997726-040-R-J2-PDC lines were cultured in 6A media, which includes advanced DMEM/F-12 (Thermo Fisher Scientific, cat. 12634028), 10 mM HEPES (Thermo Fisher Scientific, cat. 15630080), 1X GlutaMAX supplement (Thermo Fisher Scientific, cat. 35050061), 0.1 mg/mL primocin (InvivoGen, San Diego, CA, cat. ant-pm-2), 10% defined fetal bovine serum, heat inactivated (HyClone Laboratories Inc., Logan, UT, cat. SH30070.03HI), 50% L-WRN conditioned media (ATCC, cat. CRL-3276), 1.25 mM N-Acetyl-L-cysteine (Sigma-Aldrich, cat. A9165), 10 mM nicotinamide (Sigma-Aldrich, cat. N0636), 1X B-27 supplement (Thermo Fisher Scientific, cat. 17504044), 1X N-2 supplement (Thermo Fisher Scientific, cat. 17502048), and 10 microM Y-27632 dihydrochloride (Tocris Bioscience, Bristol, United Kingdom, cat. 1254). The 624824-186-R-J2-PDC line was cultured in 6C/Colon 1B media, which includes all 6A media components plus 50 ng/mL human EGF recombinant protein (Thermo Fisher Scientific, cat. PHG0311). […]
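Note: spheroids exposed to compound for 7 days before viability read.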
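Throughout, for viability, T/C: 100% = DMSO vehicle-treated spheroids.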

For `COc1c(OCCCN2CCOCC2)ccc2c3n(c(=NC(=O)c4cnc(N)nc4)nc12)CCN3`, the viability, T/C (compound 0.00316 µM) was 69.1% [middle of 8 runs], the viability, T/C (compound 0.01 µM) was 46.5% [middle of 8 runs] and the viability, T/C (compound 0.0316 µM) was 25.6% [middle of 8 runs]. The viability, T/C (compound 0.1 µM) was 7.84% [middle of 8 runs], the viability, T/C (compound 0.316 µM) was 1.95% [middle of 8 runs] and the viability, T/C (compound 1 µM) was 1.25% [middle of 7 runs]. The IC50 (compound alone, run of 05/09/2023) was 8.74 nM [middle of 8 runs].

For `CC1(C)CCC(Nc2ncc(C(F)(F)F)c(-c3c[nH]c4c(P(C)(C)=O)c(C#N)ccc34)n2)CN1` (centres undefined) + CC(Nc1ncnc2nc[nH]c12)c1cc2cccc(Cl)c2c(=O)n1-c1ccccc1, the IC50 (curve of first compound, second compound 0.0316 µM) was 5.91 µM, the IC50 (curve of first compound, second compound 0.1 µM) was 5.62 µM and the IC50 (curve of first compound, second compound 0.316 µM) was 5.58 µM. For the same molecule, the IC50 (curve of first compound, second compound 1 µM) was 5.22 µM, the IC50 (curve of first compound, second compound 3.16 µM) was 4.43 µM and the IC50 (curve of first compound, second compound 10 µM) was less than 0.0316 µM. It also gave a viability, T/C (second compound 0.0316 µM, first compound 0.0316 µM) of 68.3%, a viability, T/C (second compound 0.0316 µM, first compound 0.1 µM) of 77.2% and a viability, T/C (second compound 0.0316 µM, first compound 0.316 µM) of 71.8%. The viability, T/C (second compound 0.0316 µM, first compound 1 µM) was 79.3%, the viability, T/C (second compound 0.0316 µM, first compound 3.16 µM) was 84.1% and the viability, T/C (second compound 0.0316 µM, first compound 10 µM) was 28.1%. For the same molecule, the viability, T/C (second compound 0.1 µM, first compound 0.0316 µM) was 65.5%, the viability, T/C (second compound 0.1 µM, first compound 0.1 µM) was 74.5% and the viability, T/C (second compound 0.1 µM, first compound 0.316 µM) was 73.1%. The viability, T/C (second compound 0.1 µM, first compound 1 µM) was 81.5%, the viability, T/C (second compound 0.1 µM, first compound 3.16 µM) was 88.8% and the viability, T/C (second compound 0.1 µM, first compound 10 µM) was 23.3%. For the same molecule, the viability, T/C (second compound 0.316 µM, first compound 0.0316 µM) was 65.5%, the viability, T/C (second compound 0.316 µM, first compound 0.1 µM) was 75.1% and the viability, T/C (second compound 0.316 µM, first compound 0.316 µM) was 74.1%. The viability, T/C (second compound 0.316 µM, first compound 1 µM) was 83.2%, the viability, T/C (second compound 0.316 µM, first compound 3.16 µM) was 81.9% and the viability, T/C (second compound 0.316 µM, first compound 10 µM) was 23.4%. The viability, T/C (second compound 1 µM, first compound 0.0316 µM) was 69.1%, the viability, T/C (second compound 1 µM, first compound 0.1 µM) was 69% and the viability, T/C (second compound 1 µM, first compound 0.316 µM) was 73.8%. It also gave a viability, T/C (second compound 1 µM, first compound 1 µM) of 78.6%, a viability, T/C (second compound 1 µM, first compound 3.16 µM) of 73% and a viability, T/C (second compound 1 µM, first compound 10 µM) of 20.6%. For the same molecule, the viability, T/C (second compound 3.16 µM, first compound 0.0316 µM) was 66%, the viability, T/C (second compound 3.16 µM, first compound 0.1 µM) was 65% and the viability, T/C (second compound 3.16 µM, first compound 0.316 µM) was 67.9%. For the same molecule, the viability, T/C (second compound 3.16 µM, first compound 1 µM) was 71.4%, the viability, T/C (second compound 3.16 µM, first compound 3.16 µM) was 65.3% and the viability, T/C (second compound 3.16 µM, first compound 10 µM) was 12.7%. The viability, T/C (second compound 10 µM, first compound 0.0316 µM) was 51%, the viability, T/C (second compound 10 µM, first compound 0.1 µM) was 47% and the viability, T/C (second compound 10 µM, first compound 0.316 µM) was 45.9%. The viability, T/C (second compound 10 µM, first compound 1 µM) was 48.5%, the viability, T/C (second compound 10 µM, first compound 3.16 µM) was 41.4% and the viability, T/C (second compound 10 µM, first compound 10 µM) was 3.63%.
